Holding throughout (assay type): physicochemical
The nature of data set [1]: Water solubility of gacyclidine forms. From the text: (§1) However, in polymeric containers or in the presence of excess precipitated drug, the apparent pKA is perturbed to lower values due to interaction of the basic form of the drug with polymeric surfaces or its own insoluble precipitate. In the conjugate acid form, gacyclidine is extremely water soluble. Solutions of greater than 1 molar (M) concentration can be prepared from the hydrochloride salt. However, solutions of the acid form of the drug are thermally unstable and subject to acid-catalyzed decomposition to give stoichiometric piperidine (1 mole per mole of drug lost) and multiple other organic products.

Data set [2] is described as follows: Thermal decomposition / stability of gacyclidine in solution. The conditions noted are these: for decomposition rate: 54° C.; for Time for 10% Loss: Ringer's Lactate.
A short description of data set [3]: Apparent pKA of gacyclidine in aqueous solution.
Description: as §1

Data set [4] can be described thus: Binding (loss) of gacyclidine to silicone. The conditions noted are these: room temperature, pH 6, 100 μM gacyclidine solution; depends on time and temperature of exposure. From the text:
Delivery of gacyclidine in such a manner presents numerous challenges, however. Various characteristics of gacyclidine are discussed in more detail below. […] Specifically, catheters, drug reservoirs, pumps, anti-bacterial filters and other components of drug delivery systems are typically fabricated from polymers approved for human implantation.

Regarding `C[C@H]1CCCC[C@@]1(c1cccs1)N1CCCCC1.Cl` [Gacyclidine Hydrochloride Salt, Gacyclidine], the results for the “solubility in water (concentration of clear solution)” value in data set [1] and in data set [1] (listed as hydrochloride salt of gacyclidine) were “greater than 1 M” and above 1000 mM, respectively. The compound further showed a decomposition rate in data set [2] (10 mM HCl) of 0.52 day⁻¹. Moreover, the “Time for 10% Loss” value in data set [2] (37° C., pH 5.5) worked out at 3.7 ± 0.1 days; in data set [2] (37° C., pH 6.0), 3.82 ± 0.03 days; in data set [2] (37° C., pH 7.4), 6.1 ± 0.4 days; in data set [2] (37° C., pH 7.4, listed as gacyclidine in the hydrochloride salt form), 6.1 days. Besides, the “time required for 10% loss” value in data set [2] (37° C., slightly acidic conditions) amounted to 3.8 days.
Consider `CC1CCCCC1(c1cccs1)N1CCCCC1` (centres unmarked) [Gacyclidine], for which, in data set [3], the “temperature dependence of apparent pKA” value is recorded as −0.016 ΔpKA/° C. Moreover, the “apparent pKA in glass vials higher than in polypropylene” value in data set [3] (37° C., 1 mM gacyclidine) is “about 0.7 pH units”. Also, the “apparent pKA” value in data set [3] (room temperature, glass containers) worked out at 7.4. Besides, in data set [3] (room temperature, 0.1 M hydrochloride salt diluted into buffered aqueous solution to 1 mM, glass or polypropylene vials), the “apparent pKA (from residual gacyclidine in solution)” value was 6.7. In data set [1] (0.1 M hydrochloride salt diluted into buffered aqueous solution to 1 mM), the “pH above which precipitation is observed” value was above 7 pH. Further, the “gacyclidine retained by silicone” value in data set [4] is “up to 60%”.
In data set [1] (above pH 9), `CC1CCCCC1(c1cccs1)N1CCCCC1` (centres unmarked) [basic form of gacyclidine, Gacyclidine] had a solubility in water below 0.002 mM. Also, the decomposition rate in data set [2] (1 mM NaOH) stood at 0.0013 day⁻¹. In data set [2] (from decomposition rates at 54° C.), the “stability relative to the conjugate acid form” value was 200-400 times.

These data come from patent US20080145439A1, “NA[…] FORMULATIONS” (NEUROSYSTEC CORPORATION, priority 2006, published 2008).
